Assay results as given in ChEMBL document CHEMBL1136870, “Synthesis of aristolactam analogues and evaluation of their antitumor activity” (2009).

Assays:
Assay type in all cases: functional
SK-OV-3 = experiment: Antiproliferative activity against human SKOV3 cells by SRB assay
A-431 = experiment: Antiproliferative activity against human A431 cells by SRB assay
MDA-MB-231 = experiment: Antiproliferative activity against human MDA-MB-231 cells by SRB assay
BT-474 = experiment: Antiproliferative activity against human BT474 cells by SRB assay
HCT-15 = experiment: Antiproliferative activity against human HCT15 cells by SRB assay
A549 = experiment: Antiproliferative activity against human A549 cells by SRB assay
[1] = Antiproliferative activity against multidrug resistant human MES-SA/Dx5 cells by SRB assay
[2] = Antiproliferative activity against multidrug resistant human HCT15/CLO2 cells by SRB assay; settings: HCT-15
[3] = Antiproliferative activity against human MESSA cells by SRB assay; settings: MES-SA

| Structure (SMILES) | GI50 (SK-OV-3) | GI50 (A-431) | GI50 (MDA-MB-231) | GI50 (BT-474) | GI50 (HCT-15) | GI50 (A549) | GI50 [1] | GI50 [2] | GI50 [3] |
| --- | --- | --- | --- | --- | --- | --- | --- | --- | --- |
| COc1cc2c3c(cc4ccccc4c3c1OC)N(CCc1ccccc1)C2=O | 13.4 µM | 23.7 µM | > 30 µM | 12.8 µM | – | – | – | – | – |
| Cc1c2c3c(cccc3c3ccccc13)C(=O)N2C | 13.1 µM | 2.83 µM | – | – | 3.79 µM | 1.62 µM | – | – | – |
| COc1cc2c3c(cc4ccccc4c3c1OC)N(C)C2=O | 3.42 µM | 5.75 µM | – | – | 8.47 µM | – | 9.52 µM | 8.61 µM | 3840 nM |
| COc1cc2c3c(cc4cc5c(cc4c3c1OC)OCO5)N(C)C2=O | – | – | – | – | 5.93 µM | – | 18.9 µM | 1.64 µM | 27100 nM |
| COc1cc2c3c(cc4cc(Cl)ccc4c3c1OC)N(C)C2=O | – | – | – | – | 2.94 µM | – | > 30 µM | 17.9 µM | > 30000 nM |
| C#CCN1C(=O)c2cc(OC)c(OC)c3c2c1cc1ccccc13 | > 30 µM | > 30 µM | > 30 µM | > 30 µM | – | – | – | – | – |
| COc1cc2c3c(cc4ccccc4c3c1OC)N(Cc1cccs1)C2=O | 23.8 µM | > 30 µM | > 30 µM | > 30 µM | – | – | – | – | – |
| COc1ccc(N2C(=O)c3cc(OC)c(OC)c4c3c2cc2ccccc24)cc1 | 16.2 µM | 32.5 µM | > 30 µM | 23.7 µM | – | – | – | – | – |
| COc1cc2c3c(cc4c5c(ccc4c3c1OC)OCO5)N(CCN1CCCCC1)C2=O | < 0.1 µM | < 0.1 µM | – | – | 0.1 µM | < 0.1 µM | < 0.1 µM | 0.14 µM | < 100 nM |
| COc1cc2c3c(cc4cc(Cl)ccc4c3c1OC)N(CCN1CCCCC1)C2=O | 0.91 µM | 0.18 µM | – | – | 0.92 µM | 0.26 µM | 0.61 µM | 0.83 µM | 590 nM |
| COc1cc2c3c(c(C)c4ccccc4c3c1OC)N(C)C2=O | > 30 µM | > 30 µM | – | – | – | – | – | – | – |
| COc1cc2c3c(cc4c5c(ccc4c3c1OC)OCO5)N(CCN(C)C)C2=O | < 0.1 µM | < 0.0001 µM | – | – | < 0.0001 µM | < 0.1 µM | < 0.0001 µM | 0.0095 µM | < 0.1 nM |
| COc1cc2cc3c4c(cc(OC)c(OC)c4c2cc1OC)C(=O)N3CCN(C)C | 0.33 µM | 0.15 µM | – | – | 0.72 µM | 0.19 µM | 0.51 µM | 0.57 µM | 390 nM |
| COc1cc2c3c(cc4ccccc4c3c1OC)N(CCN1CCOCC1)C2=O | 5.49 µM | 4.64 µM | – | – | – | – | – | – | – |
| COc1ccc2cc3c4c(cc(OC)c(OC)c4c2c1)C(=O)N3 [ARISTOLACTAM BIII] | – | – | – | – | 3.74 µM | – | 2.82 µM | 3.35 µM | 2700 nM |
| COc1cc2c3c(cc4ccccc4c3c1OC)NC2=O [CEPHARANONE B] | – | – | – | – | > 30 µM | – | > 30 µM | > 30 µM | > 30000 nM |
| COc1cc([C@@H]2c3cc4c(cc3[C@@H](O[C@@H]3O[C@@H]5CO[C@@H](C)O[C@H]5[C@H](O)[C@H]3O)[C@H]3COC(=O)[C@H]23)OCO4)cc(OC)c1O [ETOPOSIDE] | – | – | – | – | 1.25 µM | – | 9.72 µM | 10 µM | 210 nM |
| COc1cc2c3c(cc4ccccc4c3c1O)N(C)C2=O [N-METHYL PIPEROLACTAM A] | – | – | – | – | 12.8 µM | – | 14.5 µM | 10.8 µM | 14500 nM |
| CC(=O)O[C@H]1C(=O)[C@@]2(C)[C@H]([C@H](OC(=O)c3ccccc3)[C@]3(O)C[C@H](OC(=O)[C@H](O)[C@@H](NC(=O)c4ccccc4)c4ccccc4)C(C)=C1C3(C)C)[C@]1(OC(C)=O)CO[C@@H]1C[C@@H]2O [PACLITAXEL] | – | < 1e-05 µM | – | – | 0.011 µM | – | 0.16 µM | 0.83 µM | < 0.01 nM |
| COc1cc2c3c(cc4ccccc4c3c1O)NC2=O [PIPEROLACTAM A] | – | – | – | – | > 30 µM | – | 27 µM | > 30 µM | > 30000 nM |
| COc1c(O)cc2c3c(cc4ccccc4c13)N(C)C2=O [SAURISTOLACTAM] | – | – | – | – | 4.1 µM | – | 23.1 µM | 4.38 µM | 23800 nM |

The next lines start with results.

| GI50 (SK-OV-3) | GI50 (A-431) | GI50 (MDA-MB-231) | GI50 (BT-474) | GI50 (HCT-15) | GI50 (A549) | Structure (SMILES) | GI50 [1] | GI50 [2] | GI50 [3] |
| --- | --- | --- | --- | --- | --- | --- | --- | --- | --- |
| 0.33 µM | 0.18 µM | – | – | 0.27 µM | 0.18 µM | COc1cc2c3c(c(C)c4ccccc4c3c1OC)N(CCN1CCCCC1)C2=O | – | – | – |
| – | – | – | – | 1.53 µM | – | COc1cc2c3c(cc4ccc(C)cc4c3c1OC)N(C)C2=O | > 30 µM | 1.46 µM | > 30000 nM |
| 24.2 µM | 27.1 µM | > 30 µM | 23 µM | – | – | COc1cc2c3c(cc4ccccc4c3c1OC)N(CC1CC1)C2=O | – | – | – |
| 9.94 µM | > 30 µM | – | – | – | – | COc1cc2c3c(cc4ccccc4c3c1OC)N(Cc1ccncc1)C2=O | – | – | – |
| 0.95 µM | 1.29 µM | – | – | 1.73 µM | 0.95 µM | COc1cc2c3c(cc4ccccc4c3c1OC)N(CCN1CCCCC1)C2=O | 1.51 µM | 1.58 µM | 1460 nM |
| 1.71 µM | 1.19 µM | – | – | 4.22 µM | 1.54 µM | COc1cc2cc3c4c(cc(OC)c(OC)c4c2cc1OC)C(=O)N3CCN1CCCCC1 | – | – | – |
| – | – | – | – | 0.3 µM | – | COc1ccc2c(c1)cc1c3c(cc(OC)c(OC)c32)C(=O)N1C | 0.76 µM | 0.16 µM | 1220 nM |
| 4.26 µM | 8.02 µM | – | – | 4.21 µM | 1.54 µM | CN1C(=O)c2cccc3c2c1cc1ccccc13 | 3.56 µM | 5.72 µM | 1810 nM |
| – | – | – | – | 0.06 µM | – | COc1cc2cc3c4c(cc(OC)c(OC)c4c2cc1OC)C(=O)N3C | 1.01 µM | 0.07 µM | 1050 nM |
| 5.45 µM | 10.9 µM | 9.37 µM | 4.16 µM | – | – | CCN1C(=O)c2cc(OC)c(OC)c3c2c1cc1ccccc13 | – | – | – |
| 19.4 µM | > 30 µM | > 30 µM | 20.6 µM | – | – | COc1cc2c3c(cc4ccccc4c3c1OC)N(C(C)C)C2=O | – | – | – |
| 24.3 µM | > 30 µM | > 30 µM | 22.5 µM | – | – | COCCN1C(=O)c2cc(OC)c(OC)c3c2c1cc1ccccc13 | – | – | – |
| 6.04 µM | 3.51 µM | 18.2 µM | 11.1 µM | – | – | COc1cc2c3c(cc4ccccc4c3c1OC)N(c1ccc(C(C)(C)C)cc1)C2=O | – | – | – |
| 6.72 µM | 2.95 µM | – | – | 5.91 µM | 4.1 µM | COc1ccc2cc3c4c(cc(OC)c(OC)c4c2c1)C(=O)N3CCN1CCCCC1 | – | – | – |
| 0.021 µM | 0.0012 µM | – | – | 0.19 µM | 0.003 µM | COc1cccc2c1C(=O)c1c(O)c3c(c(O)c1C2=O)C[C@@](O)(C(=O)CO)C[C@@H]3O[C@H]1C[C@H](N)[C@H](O)[C@H](C)O1 [DOXORUBICIN] | 0.93 µM | 7.92 µM | 5.1 nM |
